Measurements as given in patent US8895579B2, “Heterotricyclic AMPA receptor antagonists for treatment of epilepsy, pain, and other neurological disorders and diseases” (Northwestern University, priority 2010, dated 2014).

Key:
[1] = tested on: AMPA receptor EPSCs, CA1 pyramidal neurons; experiment: AMPA receptor EPSCs at Schaffer collateral-CA1 synapses, acute hippocampal slices; format: cell-based, mouse; conditions: 20 μM
Method: For recordings from acute hippocampal slices, brains from P15-21 C57Bl/6 mice were sliced transversely (350 μm thickness) in a sucrose slicing solution containing (in mM) 85 NACl, 2.5 KCl, 1.25 NaH2PO4, 25 NaHCO3, 25 glucose, 75 sucrose, 0.5 CaCl2, 4 MgCl2, 0.5 Na ascorbate, 10 μM DL-APV and 100 μM kynurenic acid (pH 7.3). After slicing, the solution was exchanged with an incubation solution containing (in mM) 125 NaCl, 2.4 KCl, 1.2 NaH2PO4, 25 NaHCO3, 25 glucose: 1 CaCl2, 2 MgCl2, 0.5 Na ascorbate, 10 μM DL-APV and 100 μM kynurenic acid (pH 7.3) that was bubbled continuously with CO2-balanced O2 (carbogen). […] Recordings in voltage clamp mode used the CsF/CsCl internal solution and carbogenated external recording solution containing (in mM) 120 NaCl, 2.4 KCl, 2 MgCl2, 1 CaCl2, 25 NaHCO3, 1.2 NaH2PO4, 25 glucose, 10 μM bicuculline methiodide, 50 μM PTX and 50 μM D-APV (pH 7.3). […] NMDA EPSCs were validated by addition of D-APV (50 μM) at the end of each recording. Hippocampal CA1 or CA3 pyramidal cells were voltage clamped at −70 mV and stimulated with a monopolar electrode either the stratum radiatum or stratum lucidum, respectively. IKM compounds were applied for 10 minutes and changes in the peak amplitudes of excitatory post-synaptic currents (EPSCs) and paired-pulse ratios were analyzed during the last two minutes of drug application. EPSC charge transfer, AP frequency, paired-pulse ratio and EPSC peak amplitude were analyzed with Mini-Analysis v6.03 (Synaptosoft, Decatur, Ga.) and Clampfit v10.0 (MDS, Sunnyvale, Calif.) software.

[2] = tested on: primary hippocampal neurons; experiment: In vitro model of status epilepticus (Mg2+ removal, 2 μM glycine), action potential firing in hippocampal neurons; format: cell-based
Method: Experiments involving primary hippocampal neurons were carried out as described previously (Vivithanaporn et al., 2007). Dissociated neurons were cultured from E18 prenatal hippocampi and were used for analysis from between 17 and 28 days in vitro. The extracellular solution was the same as used for recombinant receptor analysis, while the internal solution for voltage clamp recordings contained (in mM) 95 CsF, 25 CsCl, 10 Cs-HEPES, 10 EGTA, 2 NaCl, 2 Mg-ATP, 10 QX-314, 5 TEA. and 5 4-AP (pH 7.3) and the internal solution for current clamp recordings contained (in mM) 120 KMeSO4, 5 KCl, 5 NaCl, 1 MgCl2, 11 Na-HEPES, 10 phosphocreatine, 4 Na-ATP, and 0.3 Na-GTP (pH 7.0). Borosilicate patch electrodes were pulled and fire polished to 3-5 MΩ resistance. Both whole cell current clamp and voltage clamp recordings were performed using an Axopatch 200B amplifier (MDS, Sunnyvale, Calif.) and filtered at 20 kHz. Gigaohm seals were established in voltage clamp mode and, after membrane rupture, the recordings were carried out either in voltage clamp (clamped at Vm=−70 mV) with a […] series resistance, which was compensated to ˜60%, or in current clamp mode ([…]) with the bridge balance was corrected and pipette resistance neutralized. In vitro status epilepticus (SE) was induced as described previously (Deshpande et al., 2007; Pal et al., 1999) and action potentials were recorded in current clamp mode. Briefly for in vitro SE, magnesium-containing external solution was exchanged for external solution without magnesium and supplemented with 2 μM glycine. This solution exchange produced a period of rapid depolarization and increased AP firing, followed by a period of channel inactivation and reduced AP firing. After channel inactivation, neurons characteristically would hyperpolarize to hold at a membrane voltage (Vm) which was depolarized relative to control Vm, with an increase in AP firing frequency. […] External solutions were bath-applied at a flow rate of 1.5-2 ml/minute. After recording a basal control period, IKM compounds were applied for five minutes (10 minutes for in vitro SE experiments) and changes in excitatory post-synaptic current (EPSC) charge transfer or action potential (AP) frequency were analyzed during the last two minutes of IKM application.
Several AMPA receptor selective antagonists reduce neuronal hyperactivity in both acute brain slice preparations and in in vitro models of epilepsy (Grasso et al., 1999; Szabados et al., 2001). […] We therefore tested the efficacy of IKM-159 in reducing the hyperactive neuronal phenotype in dissociated hippocampal neurons using an in vitro model of status epilepticus (SE) (Deshpande et al., 2007; Pal et al., 1999). […]

For `O=C(O)C[C@@]12O[C@H]3C=CCN[C@H]3C1CN[C@H]2C(=O)O` (stereo partly shown) [IKM-159], the “AMPA EPSC peak amplitude as percent of control peak amplitude” value [1] was 66±5%, the “reduction of mean amplitude of AMPA receptor EPSCs” value [1] was 34±5% and the “time synaptic amplitudes remained depressed after application” value [1] was greater than 10 min. The “mean AMPA receptor EPSC amplitude in presence of compound” value ([1]; control 560±20 pA) was 370±40 pA, the “AP firing frequency in SE condition with compound” value ([2]; 3 μM, SE condition 5.7±1.2 Hz, n.s.) was 4.3±1.7 Hz and the “AP firing frequency upon wash out of compound” value ([2]; 20 μM, 10 minutes after removal) was 1.0±0.3 Hz. The “AP firing frequency in SE condition with compound” value ([2]; 20 μM, SE condition 2.3±0.4 Hz) was 0.9±0.3 Hz.
